Test results from patent US6455248B1, “Reagents and kits for detecting fungal pathogens in a biological sample” (Miami University, priority 1996, dated 2002).

Key:
LYS2 mRNA = test: Northern blot analysis of LYS2 mRNA; assay type: cell-based; conditions: C. albicans WT9517 grown in minimal medium supplemented with lysine
Procedure: Total RNA was isolated from C. albicans WA95 17 cells grown in different media according to the procedure described by Sherman et al. (1986). Total RNA (20 μg/lane) was fractionated by electrophoresis on a 1% agarose gel, transferred to nylon membranes, and hybridized to LYS2 gene and 18 s rDNA radio-labelled probes. The 2.0 kb EcoRI PstI fragment of the LYS2 gene was labelled with [a^32P]DTP by a random primer kit (Gibco BRL) and used as a probe. A plasmid carrying the 18S rDNA was also labeled similarly and used as ribosomal probe. Hybridization was carried out at 60° C. in 0.5 M Sodium phosphate (pH 7.2), 7% SDS, 1% BSA, 1 mM EDTA (pH 8.0). The membrane was washed in 2×SSC and 0.1% SDS at room temperature for 30 min and followed by a wash in 0.5×SSC and 0.1% SDS at 60° C. for 30 min. The membrane was stripped by boiling in 0.1×SSC and 0.1% SDS for 30 min followed by washing with water at 65° C. for 30 min and then reprobed.
To determine if the LYS2 gene expression is controlled at the transcriptional level by lysine and by other amino acids in rich medium, total RNA was extracted from C. albicans WT9517 grown in minimal medium, minimal medium supplemented with lysine, and in YEPD medium. The blot was quantitated using a beta scanner and the AMBIS Image analysis software. […] The LYS2 mRNA level in YEPD grown cells could not be detected. […]

[1] = biological target: T1, α-aminoadipate reductase (AAR) (Candida albicans, UniProt Q12572); test: Feedback inhibition of aminoadipate reductase activity in dialyzed cell extract; assay type: biochemical; conditions: for AAR activity: cell extract alone 19.76
T1 construct: The crude extracts were dialyzed and used as the enzyme source for the AAR activity; endogenous in cells; host or cells: C. albicans cells, dialyzed crude extract
T1 sequence (Q12572 1-1391): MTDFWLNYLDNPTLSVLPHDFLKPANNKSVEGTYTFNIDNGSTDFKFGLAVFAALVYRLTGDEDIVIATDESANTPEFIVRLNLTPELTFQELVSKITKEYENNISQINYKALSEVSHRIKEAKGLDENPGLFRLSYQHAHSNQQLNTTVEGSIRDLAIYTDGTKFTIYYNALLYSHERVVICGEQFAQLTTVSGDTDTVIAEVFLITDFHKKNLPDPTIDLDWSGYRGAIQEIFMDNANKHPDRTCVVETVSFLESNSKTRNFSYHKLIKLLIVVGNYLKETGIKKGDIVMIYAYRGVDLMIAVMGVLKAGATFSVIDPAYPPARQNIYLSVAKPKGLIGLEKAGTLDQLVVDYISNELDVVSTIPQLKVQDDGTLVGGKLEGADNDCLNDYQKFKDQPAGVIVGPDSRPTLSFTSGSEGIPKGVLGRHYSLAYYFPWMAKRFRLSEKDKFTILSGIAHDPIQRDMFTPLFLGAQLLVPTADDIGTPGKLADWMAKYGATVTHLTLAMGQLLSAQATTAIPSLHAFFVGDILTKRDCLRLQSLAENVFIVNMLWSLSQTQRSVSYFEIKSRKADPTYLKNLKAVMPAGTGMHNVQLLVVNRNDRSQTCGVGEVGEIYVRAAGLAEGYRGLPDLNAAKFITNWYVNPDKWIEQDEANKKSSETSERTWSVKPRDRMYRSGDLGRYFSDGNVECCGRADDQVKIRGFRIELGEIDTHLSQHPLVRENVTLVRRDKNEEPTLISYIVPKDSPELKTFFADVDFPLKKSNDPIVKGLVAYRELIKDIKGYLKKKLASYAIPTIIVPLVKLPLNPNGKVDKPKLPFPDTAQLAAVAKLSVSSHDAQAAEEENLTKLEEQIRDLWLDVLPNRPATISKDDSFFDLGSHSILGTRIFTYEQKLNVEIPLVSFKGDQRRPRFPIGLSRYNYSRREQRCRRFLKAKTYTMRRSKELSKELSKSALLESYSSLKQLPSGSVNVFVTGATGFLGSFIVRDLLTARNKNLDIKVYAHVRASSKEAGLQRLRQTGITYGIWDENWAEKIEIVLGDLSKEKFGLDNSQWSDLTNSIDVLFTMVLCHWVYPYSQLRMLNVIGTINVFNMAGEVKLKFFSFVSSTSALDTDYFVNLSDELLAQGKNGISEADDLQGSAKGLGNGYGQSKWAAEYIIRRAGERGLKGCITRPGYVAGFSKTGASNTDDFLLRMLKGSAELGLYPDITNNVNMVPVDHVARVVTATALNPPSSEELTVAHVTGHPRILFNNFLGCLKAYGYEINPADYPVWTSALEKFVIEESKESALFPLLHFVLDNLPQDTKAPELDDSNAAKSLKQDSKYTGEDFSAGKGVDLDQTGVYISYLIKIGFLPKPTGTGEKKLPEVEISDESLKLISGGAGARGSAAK
Procedure: (§1) Cells were grown in appropriate media at 30° C. with constant shaking and harvested during the late logarithmic phase. Crude enzyme preparations were obtained by disruption of the cells in a Braun homogenizer flask in the case of S. cerevisiae (Sinha and Bhattacharjee 1971), and by vortexing with glass beads for 30 s with 30 s intervals at 4° C. for a total of 5 mins in case of C. albicans. The crude extracts were dialyzed and used as the enzyme source for the AAR activity. The amount of protein in the dialyzed extracts was determined according to the procedure of Bradford (1976).
The AAR activity was assayed using previously described procedure (Sagisaka and Shimura 1962). The reaction mixture consisted of DL aminoadipate, 12.5 mM; ATP, 15 mM; MgCl2, 10 mM; reduced glutathione, 1 mM; α-NADPH (tetra sodium salt), 0.625 mM; and Tris HCl, 250 mM (pH8.0). Dialysed cell extract was added to a final concentration of 0.02-1.0 mg of dialyzed protein. Tubes lacking aminoadipate were used as controls. The reaction mixtures were incubated at 30 ° C. for 1 h and terminated by the addition of Iml of 2% p-dimethylaminobenzaldehyde (PDAB) in 2-methoxyethanol. Activity of AAR was reported in units of A460 h-^1 mg protein-^1.
Feedback inhibition by the end product, lysine, was determined by addition of various concentrations of lysine to the reaction mixture. 50 mM lysine inhibited the AAR activity by 70%. However, when a lysine analog, [S-(2-amino ethyl)] L-Cysteine L-thialysine), was used, 1 mM thialysine was sufficient to abolish 92% of the enzyme activity (Table 5).

[2] = tested on: AAR of C. albicans WT 9517 cells; test: AAR activity of cells grown in different media; assay type: cell-based
Procedure: Yeast strains were maintained on yeast extract-peptone-dextrose medium (YEPD). Minimal medium (MM) consisted of 1% dextrose and 0.67% yeast nitrogen base without amino acid. Minimal medium was supplemented with L-lysine (50 μg/ml) where appropriate. Escherichia coli strains were maintained on Luria Bertani medium. Plasmid containing strains were maintained in L-agar containing ampicillin at a concentration of 50 μg/ml.
as §1
The AAR activity was assayed using previously described procedure (Sagisaka and Shimura 1962). […]
The AAR activity of C. albicans WT 9517 cells was determined for cells grown in minimal medium, minimal medium supplemented with lysine, and YEPD. […]

[3] = cell extract + 1 mM inhibitor in reaction mixture
[4] = cell extract + 10 mM inhibitor in reaction mixture

| SMILES | level of LYS2 mRNA compared to cells grown in minimal medium (LYS2 mRNA) | AAR activity [1, 3] | AAR activity [1, 4] | AAR activity ([1]; cell extract + 50 mM inhibitor in reaction mixture) | inhibition at 50000 µM ([1]; read-out: inhibition of AAR activity) | repression of AAR activity compared to cells grown in minimal medium ([2]; cells grown in minimal medium supplemented with lysine) | AAR activity ([2]; cells grown in minimal medium supplemented with lysine (L-lysine 50 μg/ml), minimal medium alone 19.79) | inhibition at 1000 µM ([1]; 1 mM in reaction mixture, read-out: inhibition of AAR enzyme activity) |
| --- | --- | --- | --- | --- | --- | --- | --- | --- |
| NCCCC[C@H](N)C(=O)O [lysine, L-lysine] | significantly lower | 19.34 A460 h^−1 mg protein^−1 | 9.68 A460 h^−1 mg protein^−1 | 5.92 A460 h^−1 mg protein^−1 | 70% | 40% | 11.87 A460 h^−1 mg protein^−1 | – |
| NCCSC[C@H](N)C(=O)O [thialysine, [S-(2-amino ethyl)] L-Cysteine] | – | 3.58 A460 h^−1 mg protein^−1 | 1.78 A460 h^−1 mg protein^−1 | – | – | – | – | 92% |
